Source: PubChem BioAssay (NCI)
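Dose response: 5 concentrations. Exposure: 48 h. Format: 96-well plates. Endpoint: linear interpolation; highest concentration if not reached. Here, GI50 denotes the concentration required for 50% inhibition of growth. TGI is the concentration that stops growth completely.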

What was measured:
Assay in all cases: NCI tumour cell line growth inhibition, 48 h
K-562 leukemia = system: K-562 leukemia
MALME-3M melanoma = system: MALME-3M melanoma
SN12C renal = system: SN12C renal
786-0 renal = system: 786-0 renal
RXF 393 renal = system: RXF 393 renal
OVCAR-3 ovarian = system: OVCAR-3 ovarian
OVCAR-5 ovarian = system: OVCAR-5 ovarian
HS 578T breast = system: HS 578T breast
UACC-257 melanoma = system: UACC-257 melanoma
MOLT-4 leukemia = system: MOLT-4 leukemia

Row | SMILES | TGI (K-562 leukemia) | TGI (MALME-3M melanoma) | TGI (SN12C renal) | TGI (786-0 renal) | TGI (RXF 393 renal) | TGI (OVCAR-3 ovarian) | TGI (OVCAR-5 ovarian) | TGI (HS 578T breast) | TGI (UACC-257 melanoma) | TGI (MOLT-4 leukemia) | GI50 (K-562 leukemia) | GI50 (MALME-3M melanoma) | GI50 (SN12C renal) | GI50 (786-0 renal) | GI50 (RXF 393 renal) | GI50 (OVCAR-3 ovarian) | GI50 (OVCAR-5 ovarian) | GI50 (HS 578T breast) | GI50 (UACC-257 melanoma) | GI50 (MOLT-4 leukemia)
1 | O=C1/C(=C/c2ccc(Cl)cc2)CCC1CN1CCOCC1 (centres undefined) | 8.06 µM | 20.3 µM | 8.9 µM | 6.2 µM | 11.2 µM | 15 µM | 45.7 µM | > 100 µM | 21.8 µM | 4.21 µM | – | – | – | – | – | – | – | – | – | –
2 | Cc1ccc2nc3c(n2c1)C(=O)C(=O)c1ccccc1-3 | 0.286 µM | 0.32 µM | 0.303 µM | 1.15 µM | 10.2 µM | 1.07 µM | 0.391 µM | 0.618 µM | 0.382 µM | 1.79 µM | 0.0612 µM | 0.157 µM | 0.153 µM | 0.527 µM | 0.227 µM | 0.285 µM | 0.202 µM | 0.213 µM | 0.146 µM | 0.434 µM
3 | CNC(=O)c1cc(Oc2ccc3nc(N[C@@H]4CCCC[C@H]4O)sc3c2)ccn1 | > 100 µM | 99.2 µM | > 100 µM | > 100 µM | > 100 µM | > 100 µM | > 100 µM | > 100 µM | > 100 µM | > 100 µM | 43.7 µM | 28.6 µM | > 100 µM | > 90.9 µM | > 100 µM | 45.2 µM | > 100 µM | > 69.9 µM | 37.2 µM | 32.8 µM
4 | Clc1ccc2nc(Cl)c3ccccc3c2c1 | > 100 µM | 71.1 µM | > 100 µM | 60.8 µM | 30.4 µM | > 100 µM | > 100 µM | 72 µM | > 100 µM | > 100 µM | > 100 µM | 10.7 µM | 28 µM | 9.32 µM | 9.15 µM | 24.7 µM | 22.1 µM | 8.21 µM | > 100 µM | > 100 µM
5 | Cc1ccc(-c2cc(-c3ccc(C)cc3)nc(N3CCN(CCNc4ccnc5cc(Cl)ccc45)CC3)n2)cc1 | > 50 µM | 2.28 µM | 14.7 µM | 6.95 µM | 7.36 µM | 3.26 µM | 17.6 µM | 4.56 µM | 6.88 µM | > 50 µM | 2.4 µM | 1.07 µM | 4.71 µM | 1.81 µM | 1.45 µM | 1.29 µM | 3.84 µM | 1.41 µM | 1.91 µM | 6.25 µM
6 | O=c1c2c(=NCCN3CCCC3)cc3c(=O)n(CCCN4CCOCC4)c(=O)c4ccc(c(O)n1CCCN1CCOCC1)c2c4-3 | > 70.4 µM | 1.22 µM | 4.54 µM | 1.1 µM | 0.266 µM | 1 µM | 1.21 µM | 5.24 µM | 3.76 µM | 5.71 µM | < 0.0213 µM | 0.346 µM | 0.138 µM | 0.145 µM | 0.104 µM | 0.0994 µM | 0.113 µM | 1.18 µM | 0.707 µM | < 0.0216 µM
7 | CCSc1ccc([C@@H]2[C@@H](N)C(=O)N2c2cc(OC)c(OC)c(OC)c2)cc1 | > 100 µM | > 100 µM | > 100 µM | > 100 µM | > 100 µM | 2.08 µM | > 100 µM | > 100 µM | > 100 µM | > 100 µM | 0.0359 µM | > 100 µM | 0.524 µM | 0.08 µM | 0.245 µM | 0.0338 µM | 0.892 µM | 0.18 µM | > 100 µM | 0.0528 µM
8 | Oc1ccc2ccccc2c1N=Nc1ccc(Cl)cc1 | > 100 µM | > 100 µM | > 100 µM | > 100 µM | > 100 µM | > 100 µM | > 100 µM | > 100 µM | > 100 µM | > 100 µM | – | – | – | – | – | – | – | – | – | –
9 | O=C1/C(=C/c2ccc(Cl)cc2)CN(C(=O)CCN2CCC(=NO)CC2)C/C1=C\c1ccc(Cl)cc1 | – | 3.12 µM | 1.68 µM | 2.12 µM | 2.87 µM | 1.78 µM | 2.85 µM | 6.43 µM | 3.43 µM | – | 0.23 µM | 1.5 µM | 0.637 µM | 0.786 µM | 1.46 µM | 0.628 µM | 1.36 µM | 1.27 µM | 1.67 µM | 0.397 µM
10 | O=C(Nc1ccc(Oc2ccc(NC(=O)Nc3ccc([N+](=O)[O-])cc3)cc2)cc1)Nc1ccc([N+](=O)[O-])cc1 | – | 6.81 µM | > 84.7 µM | > 36.2 µM | > 24.4 µM | > 30.3 µM | > 100 µM | 7.98 µM | > 26 µM | 4.8 µM | 0.826 µM | 1.93 µM | 2.16 µM | 3.15 µM | 2.94 µM | 2.12 µM | 3.59 µM | 2.34 µM | 2.82 µM | 1.19 µM
11 | Oc1ccc(Oc2cnc3cc(Cl)ccc3n2)cc1 | > 100 µM | > 100 µM | > 100 µM | > 100 µM | > 100 µM | 38.4 µM | > 100 µM | > 100 µM | > 100 µM | > 100 µM | 37.7 µM | 34.7 µM | 34.2 µM | 31 µM | 46.6 µM | 15.8 µM | > 100 µM | 35.5 µM | 65.7 µM | 14.6 µM
12 | O=C(Cc1ccc(Nc2ccnc(C(F)(F)F)c2)cc1)Nc1cc(Cl)ccc1O | 12 µM | 32.7 µM | 38.5 µM | 58.6 µM | 52.4 µM | 13.6 µM | 52.1 µM | 26 µM | 49.8 µM | 5.39 µM | 2.96 µM | 3.83 µM | 9.09 µM | 21.3 µM | 25 µM | 3.37 µM | 17.8 µM | 3.7 µM | 11.8 µM | 1.73 µM
13 | CCOc1cc2c(=O)oc3c(OC)ccc4ccc(c1OC)c2c43 | > 100 µM | > 100 µM | > 100 µM | > 100 µM | > 100 µM | > 100 µM | > 100 µM | > 100 µM | > 100 µM | > 100 µM | – | – | – | – | – | – | – | – | – | –
14 | CCCCCCCCCCCCCCCC(=O)OCC1OC(OC)C(NC(=O)N(CCCl)N=O)C(O)C1O (centres undefined) | 62.1 µM | 59 µM | 39.3 µM | 14.9 µM | 32.7 µM | 48.6 µM | > 74 µM | 63.9 µM | 47.8 µM | 29.2 µM | – | – | – | – | – | – | – | – | – | –
15 | CN(C)CC1CCCCCC(Br)C1=O (centres undefined) | > 100 µM | 17.6 µM | 32.2 µM | 8.62 µM | 32.6 µM | 21.6 µM | > 52.2 µM | 61.5 µM | 23 µM | 2.83 µM | – | – | – | – | – | – | – | – | – | –
16 | COc1ccc(/C=C\c2cc(OC)c(OC)c(OC)c2)cc1OCC(=O)Nc1nc2ccccc2s1 | > 100 µM | > 85.3 µM | > 100 µM | > 100 µM | 79.9 µM | – | > 100 µM | > 100 µM | > 100 µM | > 100 µM | 0.0423 µM | 0.338 µM | 0.431 µM | 6.23 µM | 0.0503 µM | – | 31.9 µM | 26 µM | 11 µM | 0.366 µM
17 | CCCC(C)c1c(Cl)nc(Cl)nc1Cl (centres undefined) | > 100 µM | 55.6 µM | 48 µM | 12.7 µM | 22.4 µM | 21.3 µM | 39 µM | > 100 µM | 26.2 µM | > 100 µM | – | – | – | – | – | – | – | – | – | –
18 | O=C(Cn1c(C(=O)c2ccc(Cl)cc2)nc(-c2ccccc2)c1-c1ccccc1)c1ccc(Cl)cc1 | > 100 µM | > 100 µM | > 100 µM | > 100 µM | > 100 µM | > 100 µM | > 100 µM | > 100 µM | > 100 µM | > 100 µM | > 100 µM | > 100 µM | > 100 µM | > 100 µM | > 100 µM | > 100 µM | > 100 µM | > 100 µM | > 100 µM | > 100 µM
19 | O=C1/C(=C/c2ccc(Cl)c(Cl)c2)CNC/C1=C\c1ccc(Cl)c(Cl)c1 | 19.5 µM | > 66.5 µM | 12.9 µM | 5.53 µM | 29.5 µM | 7.54 µM | 37.4 µM | 19.3 µM | 72.8 µM | 28.3 µM | – | – | – | – | – | – | – | – | – | –
20 | O=C1CC(c2ccsc2)c2snc(-c3ccc(Cl)cc3)c2N1 (centres undefined) | > 100 µM | > 100 µM | > 100 µM | > 100 µM | 50.8 µM | 4.78 µM | > 100 µM | > 100 µM | > 100 µM | – | 0.356 µM | 2.72 µM | 3.77 µM | 7.65 µM | 3.49 µM | 0.694 µM | 5.92 µM | 2.59 µM | 4.08 µM | –
21 | CCOC(=O)c1ccccc1SC(C[N+](=O)[O-])c1ccccc1 (centres undefined) | 16 µM | 29.5 µM | 20.8 µM | 4.97 µM | 3.09 µM | 22.4 µM | 25.3 µM | 47.1 µM | – | 30.6 µM | 3.01 µM | 14.8 µM | 8.17 µM | 2.23 µM | 1.64 µM | 10.4 µM | 12.3 µM | 12.6 µM | – | 4.54 µM
22 | CCCCCCCCNC(C)C(O)c1ccc(SC(C)C)cc1 (centres undefined) | 3.8 µM | 3.81 µM | 3.13 µM | 3.34 µM | 2.81 µM | 3.46 µM | 3.23 µM | 4.61 µM | – | 5.27 µM | 1.88 µM | 1.98 µM | 1.57 µM | 1.73 µM | 1.45 µM | 1.98 µM | 1.76 µM | 1.98 µM | – | 2.48 µM
